{"source": "patent US20070264372A1", "about": "“Cosmetic or pharmaceutical product for external use based on papaya” (priority 2006, published 2007)", "tested_on": "skin of the volunteers (volar surface of the forearm)", "assay": "Keratolytic activity: desquamation index after occlusive Finn chamber application, Protocol c)", "type": "in vivo, human", "experimental": "Under Protocol c) a study was carried out aimed to evaluate the Keratolytic activity of a raw, fermented papaya material for cosmetic use. The study was carried out according to a double-blinded protocol with randomisation of the application sites. Under the test, irritating products were applied to the skin of the volunteers by means of an occlusive chamber (Finn chamber, Ø 7.0 mm) containing a disc of absorbing paper wetted with a known quantity (20 μl) of product. The exposure time to the irritating product (Salicylic acid at 1.5, 3.0 and 5.0% (w/v) concentration) was 3 and 6 hours. The application site of the irritating products selected for study purposes was the volar surface of the forearm. The products were applied on the skin of the volunteers for 3 and 6 hours. • b) desquamation index on the images acquired with Comeofix® tape and Visioscan® (Courage+Khazaka electronic GmbH). Desquamation index was calculated as: DI=[2A+(T1·(1−1)+T2·(2−1)+ . . . +Tn·(n−1)]/(n+1) • The variation was calculated as: [formula] I.D. [X]0: Basal desquamation index; I.D. [X]x: Desquamation index at the x concentration (1.5, 3.0 and 5.0%) of fermented papaya or salicylic acid."}
{"smiles": "O=C(O)c1ccccc1O", "note": "[SALICYLIC ACID, Salicylic acid]", "values": [{"measurement": "Variation of desquamation index", "setting": "1.5% solution, 3 h application", "result": "2.58 ± 0.24"}, {"measurement": "Variation of desquamation index", "setting": "1.5% solution, 6 h application", "result": "2.71 ± 0.36"}, {"measurement": "Variation of desquamation index", "setting": "3.0% solution, 3 h application", "result": "3.12 ± 0.24"}, {"measurement": "Variation of desquamation index", "setting": "3.0% solution, 6 h application", "result": "3.24 ± 0.38"}, {"measurement": "Variation of desquamation index", "setting": "5.0% solution, 3 h application", "result": "3.25 ± 0.26"}, {"measurement": "Variation of desquamation index", "setting": "5.0% solution, 6 h application", "result": "3.59 ± 0.43"}, {"measurement": "change of desquamation index", "setting": "both after 3.0 and 6.0 hours of application, result in words", "result": "increase"}, {"measurement": "application time at which the maximum keratolytic action was reached", "setting": "statistical analysis", "result": 3, "unit": "h"}, {"measurement": "concentration at which the maximum keratolytic action was reached", "setting": "statistical analysis", "result": 3.0, "unit": "%"}]}
